Measurements published in paper PMC5652740, “Inhibition of HIV-1 infection in humanized mice and metabolic stability of protein phosphatase-1-targeting small molecule 1E7-03” (Oncotarget, 2017).

Assays:
[1] = system: CEM T cells; assay: Cell viability, trypan blue-based assay; conditions: 24 h; for effect on cell viability: up to 180 μM, in words
Procedure: CEM T cells were cultured in 96-well plates at 37°C and incubated with the indicated compound concentrations for 24 hrs. Cell viability was determined using trypan blue-based assay.

[2] = system: HIV-1 89.6; assay: Antiviral efficacy in HIV-1 89.6-infected humanized NSG mice; format: in vivo; conditions: 48 hrs
Procedure: NOD.Cg-Prkdcscid Il2rgtm1Wjl/SzJ (NSG) mice initially purchased from Jackson Laboratories were bred and maintained in the Animal Core Facility at George Mason University (Manassas, VA). NSG mice were generated by i.p. injection of cryopreserved human CD34+ hematopoietic stem progenitor cells (HSPC) (500,000 cells per mouse) isolated from the autologous fetal liver. Anesthetized mice were inoculated by direct injection 16 weeks after implantation with 50 μl of HIV-1 89.6 (1,000 TCID50) or RPMI 1640 medium (mock infection). […] Blood was collected by tail vein after 48 hrs and transferred into microcentrifuge tubes containing 330 mM EDTA. Each data point represents the blood from a single animal. Plasma was removed after low-speed centrifugation for 5 min at room temperature and stored at -80°C. Viral RNA was extracted from plasma using the QIAamp Viral RNA Mini Kit (Qiagen). For quantitative analysis of HIV-1 RNA, total RNA was isolated from blood specimens of HIV-1-infected humanized mice. RNA was isolated using Trizol Reagent (Invitrogen, Carlsbad, CA) according to the manufacturer's protocol. A total of 1.0 μg of RNA was treated with 0.25 mg/ml DNase I RNase-free (Roche, Mannheim, Germany) for 60 min in the presence of 5 mM MgCl2, followed by heat inactivation at 65 °C for 15 min. A 200–250 ng aliquot of total RNA was used to generate cDNA with the GoScript Reverse Transcription System (Promega, Madison, WI) using TAR-specific reverse primer TAR+59R: 5′- […] -3′. Subsequent quantitative real-time PCR analysis was performed with 2 μl of undiluted RT reaction mixes. The iQ Supermix (Bio-Rad, Hercules, CA) was used with the primers specific for (1) HIV-1 TAR: TARfll-F: 5′-[…]-3′ and TAR+59R as above; (2) HIV-1 TAR-gag: Gag 1625R: 5’- […] -3’ and TAR+59R as above. Real-time PCR reactions were carried out in triplicate.

[3] = Pharmacokinetic analysis in mice after i.p. injection; format: in vivo; conditions: male, BALB/cJ, ip
Procedure: The animal facilities and protocols were approved by Howard University Institutional Animal Care and Use Committee (IACUC). All experimental procedures were in accordance with the NIH Guidelines for the Care and Use of Laboratory Animals. BALB/cJ male mice (8 weeks old, 25–30 g) were purchased from Jackson Laboratory (Bar Harbor, ME, USA) and housed under pathogen-free conditions in HEPA-filtered cages and kept on a 12 h light/dark cycle. Compounds were administered to mice via intraperitoneal (i.p.) injection with maximum achievable doses of 30 mg/kg 1E7-03 (100 μl injection of 8 mM 1E7-03 in 80% DMSO/20% saline) and 100 mg/kg DP1-07 (100 μl injection of 100 mM DP1-07 in 40% propylene glycol/10% DMSO/50% saline). Blood samples were collected at different time points (15 min, 30 min, 1 hr, 3 hr, 6 hrs and 24 hrs) for each group (n=3 mice per group). For each sample, 20 μl of plasma was mixed with 80 μl cold acetone, and centrifuged at 13,000 rpm for 5 min. The supernatant was transferred to a clean test tube and dried in a SpeedVac concentrator. The residue was re-constituted in 50 μl of acetonitrile for LC-MS analysis. Calibration curves were prepared by spiking 1E7-03, DP1, DP3 and DP1-07 into the drug-free mouse plasma and subjected to similar sample extraction procedures. The plasma concentration–time profile of each analyte was constructed and pharmacokinetic parameters were determined by non-compartmental method using Phoenix WinNonlin Version 5.3 (Pharsight Corporation, Mountain View, CA).
(§1) A 10 μl aliquots from each sample were loaded to a LC-20AD nano HPLC system (Shimadzu Corporation, Columbia, MD, USA) coupled to LTQ XL Orbitrap mass spectrometer (Thermo Fisher Scientific) with the installed Xcalibur software (version 2.0.7, Thermo Fisher Scientific). Liquid chromatography was carried out on an in-house made nano-HPLC column (Polymicro Technologies Inc., Phoenix, AZ, USA) packed with reverse phase PolySulfoethyl A, 5μM, 200 Å (PolyLC Inc., Columbia, MD, USA). Mobile phase A was 0.1% formic acid in water and mobile phase B - 0.1% formic acid in acetonitrile. The elution was performed at a flow rate of 600 nl/min over 40 min using a multisegment linear gradient of mobile phase B as follows: 0–6.02 min, 1% B; 6.02–6.11 min, 1–2% B; 6.11–20 min, 2−80% B; 20–25 min, 80% B; 25–30 min, 80–85% B; 30–31 min, […]; 31–40 min, 2% B (v/v). The Orbitrap was operated under data-dependent acquisition mode. The spray voltage, capillary temperature and capillary voltage were set to 2.0 kV, 200 °C, and 39.5 V, respectively. Full-scan mass spectra were acquired in Orbitrap over 150−1500 m/z with a resolution of 30 000, followed by MS^n scans by CID activation mode. The precursor ions were fragmented with collision energy of 18 with activation Q of 0.25 and an activation time of 30 ms. Dynamic exclusion was enabled with a repeat count of 2, a repeat duration of 15 s, exclusion duration of 20 s, an exclusion list size of 50. The mass spectrometer was also operated in NL scan of m/z 18.01, 45.05, 71.03 and 72.02 and MRM mode. The MRM transitions were controlled by a segmented program in order to short the scan cycle and increase sensitivity.

[4] = 1E7-03 degradation in mouse plasma; format: in vitro ADME; conditions: for % of 1E7-03 degraded: mouse plasma, 10 μM
Procedure: as §1
1E7-03 dissolved in DMSO (10 mM stock solution) was mixed with mouse plasma (Sigma-Aldrich), guinea pig plasma (Sigma-Aldrich), ferret plasma (BioreclamationIVT), monkey plasma (courtesy of Binhua Ling, PhD, Tulane University) and human plasma (collected from heathy volunteer by the Center for Sickle Cell Disease at Howard University) to the final concentration of 10 μM and incubated at 37°C. Aliquots were collected at different time points for up to 24 hrs. The resulting sample (60 μl) was mixed with 240 μl of cold acetone, vortexed for 2 min, kept at –20°C for 30 min, and then the precipitated protein was removed by centrifugation at 13,000 × g for 5 min. The supernatant was transferred to a clean test tube and evaporated to dryness using a SpeedVac concentrator. The residue reconstituted in 60 μl of acetonitrile for LC/FT-MS analysis. All experiments were run parallel in triplicates.

[5] = mouse plasma after i.p. 30 mg/kg 1E7-03, parent and its metabolites DP1, DP3, mean, n=3
[6] = mouse plasma after i.p. 30 mg/kg 1E7-03, parent and metabolites DP1, DP3
[7] = mouse, plasma, 30 mg/kg, mouse plasma after i.p. 30 mg/kg 1E7-03, parent and metabolites DP1, DP3
[8] = mouse plasma after i.p. 100 mg/kg DP1-07, parent and products DP1-07P1, DP1-07P2

Compound	Cmax [3, 5] [µM]	AUC(0-t) [3, 6] [µM·h]	MRT last [3, 6] [h]	half-life [3, 6] [min]	Tmax [3, 7] [h]	effect on cell viability [1]	further results
CCNC(=O)NC(=O)C(C)OC(=O)c1c2c(nc3ccccc13)/C(=C/c1ccc(OC)c(OC)c1)CC2 (centres unmarked) [1E7-03]	3.43	12.2	2.4	203	0.5	–	viability reduction ([1]; highest tested 180 μM): about 30%; fold reduction of HIV TAR RNA ([2]; single i.p. dose, 1E7-03 3 mg/kg, F07#13 […], vs untreated mice, Figure 6A): > 40 fold; fold reduction of HIV TAR-gag RNA ([2]; single i.p. dose, 1E7-03 3 mg/kg, F07#13 […], vs untreated mice, Figure 6B): > 39 fold; stability in mice and mouse plasma ([4]; in words): not stable; % of 1E7-03 degraded ([4]; 37°C, 2 hrs): 40%; % of 1E7-03 degraded ([4]; 37°C, 4 hrs): over 85%
COc1ccc(/C=C2\CCCc3c2nc2ccccc2c3C(=O)OC(C)C(=O)OC(C)(C)C)cc1OC (centres unmarked) [DP1-07]	–	–	–	–	–	–	fold reduction of HIV TAR RNA ([2]; single i.p. dose 3 mg/kg, Figure 7G): 3.8 fold; AUC(0-t) [3, 8]: 706 µM·h; MRT last [3, 8]: 10.7 h; half-life [3, 8]: 857 min; Cmax ([3]; mouse plasma after i.p. 100 mg/kg DP1-07, parent and products DP1-07P1, DP1-07P2 (quantified with DP1 and DP3 calibration curves)): 42.7 µM; Tmax ([3]; mouse, plasma, 100 mg/kg, mouse plasma after i.p. 100 mg/kg DP1-07, parent and products DP1-07P1, DP1-07P2): ~6 h; concentration at 24 h ([3]; mouse, plasma, i.p. 100 mg/kg DP1-07, 24 hrs, read-out: concentration present in murine blood 24 hrs post-injection): 18 µM
COc1ccc(/C=C2\CCc3c2nc2ccccc2c3C(=O)OC(C)C(=O)O)cc1OC (centres unmarked) [DP1]	9.09	124	4.98	192	3	no effect	time at which DP1 levels reached their maximum ([4]; 10 μM 1E7-03 in mouse plasma, 37°C): 2 h
COc1ccc(/C=C2\CCc3c2nc2ccccc2c3C(=O)O)cc1OC [DP3]	3.61	30.7	4.39	146	1	no effect	level of degradation product in mouse plasma ([4]; 10 μM 1E7-03 in mouse plasma, 37°C, up to 24 hrs): low levels
